For data set [1], the system named is Male CD-1 mouse hepatocytes. The experiment in a line: In vitro metabolism of Compound 1 in mouse cryopreserved hepatocytes. For Relative abundance of metabolite of Compound 1, Mouse: key: ND Not detected; trace: Trace: observed by HPLC/MS measurements only; + Minor as assessed by HPLC/UV measurements; ++ moderate as assessed by HPLC/UV measurements; +++ major as assessed by HPLC/UV measurements; * m/z 593 and m/z 505 co-eluted in rabbit hepatocytes; ** m/z 591c and m/z 593 were merged in human hepatocytes and Hepatopack; *** m/z 607 and m/z 751b were merged in rabbit hepatocytes. In kind it is in vitro ADME. As to conditions: HPLC/UV/MS; for metabolite of Compound 1 observed in mouse hepatocyte incubations: 10 μM Compound 1, 7.5×10^5 cells/mL, 1 and 4 hrs composite sample. On the procedure: (§1) Male CD-1 mouse hepatocytes (lot YHL), male Wistar-Han rat hepatocytes (Celsis; product number: M000065; lot: SLA), female New Zealand rabbit hepatocytes (lot 1510147), male cryopreserved cynomolgus monkey hepatocytes (Celsis; product number: M00305; lot: DNB) and mixed-gender cryopreserved human hepatocytes (Bioreclamation; product number: S01988; lot: DCM) were obtained for the hepatocyte in-vitro assessments.
(§2) At time 0 hrs 550 μL aliquots were removed from incubations and quenched with 5 volumes of ACN containing 0.1% formic acid. At 1 and 4 hrs, 275 μL aliquots were removed and quenched as above; these were combined in the same tube to prepare a composite sample. For all hepatocyte experiments, samples were processed by centrifugation at 1900×g for 5 minutes, and then the supernatant was transferred to clean glass tubes and evaporated to dryness under a stream of N2 using a Turbovap at 37° C. Sample residues were reconstituted in mobile phase prior to analysis by HPLC/UV/MS^n.
(§3) Samples were analyzed by HPLC/UV/MS^n using a Thermo Orbitrap Elite mass spectrometer in conjunction with a Thermo Open Accela UHPLC system. A 3.0×150 mm, 2.5 μm Acquity CSH C18 HPLC column (Waters) was heated to 45° C. for separation of analytes. The mobile phase was a gradient of A): water containing 0.1% formic acid, and B): acetonitrile. The flow rate was 450 μL/min, and the following gradient program was utilized: […]
(§4) UV absorbance was monitored with a photo-diode array detector from 220-450 nm. The mass spectrometer was operated in positive-ion mode with a HESI ion source at a potential of 3.0 kV, and capillary and source heater temperatures of 380 and 300° C., respectively. Sheath, auxiliary, and sweep gas flows were set to 45, 10, and 2 units, respectively. Full scan mass spectra were acquired over the range 120-1200 m/z at a resolving power of 30,000 (specified at m/z 400). Data-dependent MS^n spectra were acquired in an automated fashion at 15,000 resolving power using CID and HCD fragmentation with normalized collision energy settings of 28 and 65 V, respectively.
(§5) Metabolites were characterized by comparisons of mass spectral fragmentation patterns with that of a Compound 1 standard. All HPLC/UV/MS^n data were processed using Xcalibur v. 2.2, and integrated UV peak areas were subjected to weighted UV binning procedures utilizing an Excel template.

Data set [2] concerns male Wistar-Han rat hepatocytes. Description: In vitro metabolism of Compound 1 in rat cryopreserved hepatocytes. For Relative abundance of metabolite of Compound 1, Rat: key: ND Not detected; trace: Trace: observed by HPLC/MS measurements only; + Minor as assessed by HPLC/UV measurements; ++ moderate as assessed by HPLC/UV measurements; +++ major as assessed by HPLC/UV measurements; * m/z 593 and m/z 505 co-eluted in rabbit hepatocytes; ** m/z 591c and m/z 593 were merged in human hepatocytes and Hepatopack; *** m/z 607 and m/z 751b were merged in rabbit hepatocytes. It is filed as in vitro ADME. As to conditions: HPLC/UV/MS; for Relative abundance of metabolite of Compound 1, Rat: rat cryopreserved hepatocytes; for metabolite of Compound 1 observed in rat hepatocyte incubations: 10 μM Compound 1, 7.5×10^5 cells/mL, 1 and 4 hrs composite sample. The procedure:
as §1, §2, §3, §4, §5

The subject of data set [3] is female New Zealand rabbit hepatocytes. The experiment in a line: In vitro metabolism of Compound 1 in rabbit cryopreserved hepatocytes. In kind it is in vitro ADME. As to conditions: 10 μM Compound 1, 7.5×10^5 cells/mL, 1 and 4 hrs composite sample, HPLC/UV/MS. The procedure: as §1, §2, §3, §4, §5
The subject of data set [4] is male cryopreserved cynomolgus monkey hepatocytes. Description: In vitro metabolism of Compound 1 in monkey cryopreserved hepatocytes. For Relative abundance of metabolite of Compound 1, Monkey: key: ND Not detected; trace: Trace: observed by HPLC/MS measurements only; + Minor as assessed by HPLC/UV measurements; ++ moderate as assessed by HPLC/UV measurements; +++ major as assessed by HPLC/UV measurements; * m/z 593 and m/z 505 co-eluted in rabbit hepatocytes; ** m/z 591c and m/z 593 were merged in human hepatocytes and Hepatopack; *** m/z 607 and m/z 751b were merged in rabbit hepatocytes. It is filed as in vitro ADME. As to conditions: HPLC/UV/MS; for metabolite of Compound 1 observed in monkey hepatocyte incubations: 10 μM Compound 1, 7.5×10^5 cells/mL, 1 and 4 hrs composite sample. The procedure:
as §1, §2, §3, §4, §5

Data set [5] relates to mixed-gender cryopreserved human hepatocytes. Description: In vitro metabolism of Compound 1 in human cryopreserved hepatocytes. For Relative abundance of metabolite of Compound 1, Human: key: ND Not detected; trace: Trace: observed by HPLC/MS measurements only; + Minor as assessed by HPLC/UV measurements; ++ moderate as assessed by HPLC/UV measurements; +++ major as assessed by HPLC/UV measurements; * m/z 593 and m/z 505 co-eluted in rabbit hepatocytes; ** m/z 591c and m/z 593 were merged in human hepatocytes and Hepatopack; *** m/z 607 and m/z 751b were merged in rabbit hepatocytes. In kind it is in vitro ADME. As to conditions: HPLC/UV/MS; for metabolite of Compound 1 observed in human hepatocyte incubations: 10 μM Compound 1, 7.5×10^5 cells/mL, 1 and 4 hrs composite sample. The procedure: as §1, §2, §3, §4, §5
Data set [6] in a line: Circulating metabolites of Compound 1 in rat plasma following a 1.0 mg/kg IV bolus dose. As to conditions: 1.0 mg/kg IV bolus dose of Compound 1, pooled plasma 0.033-24 hrs, male rats. It is filed as in vivo. On the procedure:
(§6) Plasma and bile samples were obtained from a bile duct cannulated rat experiment (Study PK-0111) in which a 1.0 mg/kg IV bolus dose was administered to fed male rats (N=3). No control plasma was available from this experiment.
Clin Pharmacol Ther 1981; 29(3):408-13]. The entire volume of each replicate Hamilton pool was combined to create a single pooled sample (576 μL) for analysis.
(§7) Pooled plasma and bile samples were extracted with ACN containing 0.1% formic acid, and after centrifugation at 1900×g, the supernatant was transferred to clean tubes and evaporated under N2 in a Turbovap set at 37° C. Residues were reconstituted in mobile phase (5:95 v:v ACN:0.1% aqueous formic acid) prior to analysis by HPLC/UV/MS^n.
as §3, §4, §5

Data set [7] is described as follows: Metabolites of Compound 1 in rat bile following a 1.0 mg/kg IV bolus dose (bile duct cannulated rat). In kind it is in vivo. As to conditions: 1.0 mg/kg IV bolus dose of Compound 1, pooled bile 0-24 hrs, bile duct cannulated male rats. On the procedure: as §6
Bile samples (0-3, 3-7, and 7-24 hrs) from individual animals were pooled in proportion to the amount collect in each interval. Then 0.5 mL of each individual pool was combined to prepare a composite sample for analysis.
as §7, §3, §4, §5

Structures are written as SMILES.

In the case of `C[C@]1(c2ccc(Cl)cn2)Oc2cccc(C3CCN(Cc4nc5ccc(C(=O)O)cc5[nH]4)CC3)c2O1` [Metabolite 505], the “Relative abundance of metabolite of Compound 1, Mouse” value in data set [1] (mouse cryopreserved hepatocytes) is reported as “trace”. Also, the “Relative abundance of metabolite of Compound 1, Rat” value in data set [2] was “trace”.

Regarding `C[C@]1(c2ccc(Cl)cn2)Oc2cccc(C3CC[N+]([O-])(Cc4nc5ccc(C(=O)O)cc5n4C[C@@H]4CCO4)CC3)c2O1` (some centres unmarked) [Metabolite 591d], the “metabolite of Compound 1 observed in mouse hepatocyte incubations” value (from here on “metabolite … in mouse hepatocyte incubations”) in data set [1] is “observed”. Also, the “metabolite of Compound 1 observed in rat hepatocyte incubations” value (shortened to “metabolite … in rat hepatocyte incubations”) in data set [2] was “observed”. The “metabolite of Compound 1 observed in rabbit hepatocyte incubations” value (“metabolite … in rabbit hepatocyte incubations” below) in data set [3] is reported as “observed”. For the same molecule, in data set [4], the “metabolite of Compound 1 observed in monkey hepatocyte incubations” value (shortened to “metabolite … in monkey hepatocyte incubations”) was “observed”. Moreover, the “metabolite of Compound 1 observed in human hepatocyte incubations” value (“metabolite … in human hepatocyte incubations” for short) in data set [5] was “observed”.

On to `C[C@]1(c2ccc(Cl)cn2)Oc2cccc(C3CCN(Cc4nc5ccc(C(=O)O)cc5n4CC(O)CCO)CC3)c2O1` (stereo in doubt) [Metabolite 593], for which the “metabolite … in mouse hepatocyte incubations” value in data set [1] is recorded as “observed”. For the same molecule, the “metabolite … in rat hepatocyte incubations” value in data set [2] was “observed”. For the same molecule, in data set [3], the “metabolite … in rabbit hepatocyte incubations” value is reported as “observed”. The “metabolite … in monkey hepatocyte incubations” value in data set [4] was “observed”. For the same molecule, in data set [5], the “metabolite … in human hepatocyte incubations” value was “observed”.

Regarding `C[C@]1(c2ccc(Cl)cn2)Oc2cccc(C3CCN(Cc4nc5ccc(C(=O)O)cc5[nH]4)CC3)c2O1` [Metabolite 505, (S)-2-((4-(2-(5-chloropyridin-2-yl)-2-methylbenzo[d][1,3]dioxol-4-yl)piperidin-1-yl)methyl)-1H-benzo[d]imidazole-6-carboxylic acid], the “metabolite … in mouse hepatocyte incubations” value in data set [1] is listed as “observed”. The “metabolite … in rat hepatocyte incubations” value in data set [2] is “observed”. Besides, in data set [3], the “metabolite … in rabbit hepatocyte incubations” value was “observed”.

`C[C@]1(c2ccc(Cl)cn2)Oc2cccc(C3CCN(Cc4nc5ccc(C(=O)O)cc5n4C[C@@H]4CCO4)CC3)c2O1` [Compound 1, 2-((4-((S)-2-(5-chloropyridin-2-yl)-2-methylbenzo[d][1,3]dioxol-4-yl)piperidin-1-yl)methyl)-1-(((S)-oxetan-2-yl)methyl)-1H-benzo[d]imidazole-6-carboxylic acid]: in data set [6], the “detected in rat plasma” value is reported as “detected”. In addition, the “detected in rat bile” value in data set [7] was “detected”.

As to `O=C(O)c1ccc2nc(CN3CCC(c4cccc(O)c4O)CC3)n(C[C@@H]3CCO3)c2c1` [Metabolite 438], in data set [2], the “Relative abundance of metabolite of Compound 1, Rat” value is “trace”. In addition, the “Relative abundance of metabolite of Compound 1, Monkey” value in data set [4] (monkey cryopreserved hepatocytes) is recorded as “trace”. The “Relative abundance of metabolite of Compound 1, Human” value in data set [5] (human cryopreserved hepatocytes) is given as “trace”.

As for `O=C(O)c1ccc2nc(CN3CCC(c4cccc(O)c4O)CC3)n(C[C@@H]3CCO3)c2c1` [Metabolite 438, (S)-2-((4-(2,3-dihydroxyphenyl)piperidin-1-yl)methyl)-1-(oxetan-2-ylmethyl)-1H-benzo[d]imidazole-6-carboxylic acid], in data set [2], the “metabolite … in rat hepatocyte incubations” value is given as “observed as a trace metabolite”. Moreover, in data set [4], the “metabolite … in monkey hepatocyte incubations” value is recorded as “observed as a trace metabolite”. Further, in data set [5], the “metabolite … in human hepatocyte incubations” value is “observed as a trace metabolite”.

The values above are taken from patent US20220193063A1, “METABOLITES OF GLP1R AGONISTS” (Pfizer Inc., priority 2020, published 2022).
